2 substances from patent US5223484A, “Peptide which regulates weight gain in mammals” (Georgetown University, priority 1990, dated 1993) can be followed below.

Test [1] can be described thus: Body weight of rabbits injected with peptide/carrier conjugate. The test is classed as in vivo. The conditions noted are these: female rabbits, peptide coupled to keyhole limpet hemocyanin, 50 μg of peptide subcutaneously, repeated at two weeks then approximately monthly; P1 and P3 pooled (five rabbits). The protocol:
These peptides were then coupled chemically to keyhole limpet hemocyanin, a carrier protein, to improve the immunogenicity in rabbits.
Each peptide/carrier conjugate (50 μg of peptide, approximately 30 nanomoles) was injected subcutaneously into three female rabbits (three groups of three rabbits, approximately 2 months old). Two weeks later the rabbits were injected again with the same amounts of peptide/carrier conjugate. Thereafter, each rabbit was injected with the conjugate at approximately monthly intervals and blood samples were drawn. After five months, the rabbits were sacrificed.
Before the first injection, the rabbits were weighed for calculation of anesthetic dose (used to sedate the rabbits during injection). Before the rabbits were sacrificed, they were weighed again as the rabbits which received P2 were quite obese compared to all other rabbits. The average weight of the five injected with peptides P1 and P3 was 4.4 kg. This is normal for adult female rabbits of this type at this age, i.e. the average weight expected at 6 months is 4.5 kg. However, the weights of the rabbits injected with peptide P2 averaged 5.2 kg, approximately 20% higher.

Test [2] in a line: Weight gain of mice injected with free peptide. The note with it: BALB/c mice, free peptide 2.5 μg subcutaneously once per week, 85 days, five mice per group. It counts as in vivo, mice (BALB/c strain). The protocol: In order to obtain statistically significant data on the effects of peptide P2 on weight gain, another series of experiments using mice were performed. Three groups of five mice (BALB/c strain) were used. The first group received injections of peptide P2, a second group received injections of P3 (as control), and a third group received injections of saline (as control). Free peptides were used to avoid the possibility that the effect observed in Example 1 may have been due to the nature of the chemical coupling to the carrier protein. Each mouse (weighing approximately 15 grams) received an injection of 2.5 μg (1.5 nanomoles) of peptide or saline injected subcutaneously. The mice were weighed three times per week and injected once per week with another 2.5 μg of peptide or saline. After 85 days the mice were sacrificed.

As for KRPLQAEEQALSMDF [P1], in test [1], the “average weight of the rabbits at the end of five months” value was 4.4 kg. With “P3: amino-terminal cytochrome b 561 sequence Ser(21) - Tyr(37), cysteine added at amino-terminus, two lysine residues at carboxy-terminus (CSMEGPASPARAPGALPYKK)”, the “average weight of the rabbits at the end of five months” value in test [1] came to 4.4 kg. In addition, in test [2], the “effect on weight gain” value is recorded as “not different than the P3 control group”.
